According to the NIST ThermoML archive (doi:10.1021/je060136y):
Where “and” joins values, the source holds several entries; their conditions need not be identical. Equal values may be shown once. Numbers after ± are expanded uncertainties.

Assay: activity coefficient (dimensionless); of the first substance listed, at infinite dilution; xn = mol fraction of the nth substance listed
Details: Liquid, x1 = 0
[1] = 333.15 K, Rayleigh distillation method
[2] = 343.15 K, Rayleigh distillation method
[3] = 353.15 K, Rayleigh distillation method

Row | activity coefficient (313.15 K, headspace analysis) | activity coefficient (372.65 K, circulation still method) | activity coefficient (372.82 K, circulation still method) | SMILES | activity coefficient (298.15 K, headspace analysis) | activity coefficient [1] | activity coefficient [2] | activity coefficient [3] | activity coefficient (372.47 K, ciculation still method) | activity coefficient (372.85 K, ciculation still method)
1 | – | – | – | Nc1ccccc1 [aniline] + O | 145 ± 15 | 130 ± 13 | 121 and 119 | 111 ± 11 | 92.7 ± 9.3 | –
2 | 29.1 ± 2.9 | 64.5 ± 6.5 | 53.5 and 64.6 | NC1CCCCC1 [cyclohexylamine] + O | 19 ± 2 | 36.7 ± 3.7 | 44.8 ± 4.5 | 51.2 ± 5.1 | – | –
3 | – | – | – | O=[N+]([O-])c1ccccc1 [nitrobenzene] + O | – | 2450 and 2320 | 2150 ± 220 | 1640 and 1660 | – | 1320 ± 130
